Test results: patent publication US6974830B2, “NR1H4 nuclear receptor binding compounds” (Phenix Pharmaceuticals AG, priority 2001, dated 2005)
Like-named read-outs stand apart in the source and are kept apart here.

Tests used:
[1] = target: T1, full length human FXR (Homo sapiens, UniProt Q96RI1); experiment: transactivation of FXR mediated transcription in a HEK293 reporter cell line (luciferase); format: cell-based; details: for Emax: HEK293, read-out: EFFIC AVG (average efficacy, % activity relative to CDCA control agonist), relative to CDCA control agonist; for EC50: HEK293 FXR reporter cell line
T1 construct: expressed in transfected cells
T1 sequence (Q96RI1 1-472 isoform Q96RI1-2): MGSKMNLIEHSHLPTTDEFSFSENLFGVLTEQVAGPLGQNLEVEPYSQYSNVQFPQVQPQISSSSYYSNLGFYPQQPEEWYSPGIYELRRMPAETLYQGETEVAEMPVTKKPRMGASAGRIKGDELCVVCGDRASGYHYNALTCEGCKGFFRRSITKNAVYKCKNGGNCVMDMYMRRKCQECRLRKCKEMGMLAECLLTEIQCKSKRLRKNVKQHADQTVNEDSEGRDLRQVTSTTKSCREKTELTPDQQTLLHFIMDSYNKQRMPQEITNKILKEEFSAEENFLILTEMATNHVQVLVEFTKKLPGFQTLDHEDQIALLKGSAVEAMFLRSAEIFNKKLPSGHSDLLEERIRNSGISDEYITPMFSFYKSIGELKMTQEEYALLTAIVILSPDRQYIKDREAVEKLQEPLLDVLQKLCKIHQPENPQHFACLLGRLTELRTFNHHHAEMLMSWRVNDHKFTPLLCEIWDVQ
T1 sequence (P19793 1-462 partner): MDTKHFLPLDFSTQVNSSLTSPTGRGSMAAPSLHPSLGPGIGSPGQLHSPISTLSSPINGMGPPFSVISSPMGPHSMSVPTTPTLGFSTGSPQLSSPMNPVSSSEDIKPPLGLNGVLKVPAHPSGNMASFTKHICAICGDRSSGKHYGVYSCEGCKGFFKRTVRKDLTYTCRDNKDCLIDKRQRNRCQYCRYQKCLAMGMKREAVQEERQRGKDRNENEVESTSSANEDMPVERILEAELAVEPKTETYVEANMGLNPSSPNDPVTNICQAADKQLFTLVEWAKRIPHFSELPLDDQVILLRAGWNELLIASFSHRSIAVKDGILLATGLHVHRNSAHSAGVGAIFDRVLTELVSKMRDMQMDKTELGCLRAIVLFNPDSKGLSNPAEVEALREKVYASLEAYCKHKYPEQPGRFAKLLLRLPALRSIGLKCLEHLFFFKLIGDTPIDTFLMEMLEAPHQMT
Description: Tables 3, 4, 5 and 6 illustrate the preferred compounds according to the invention that can mediate transactivation of FXR mediated transcription in a HEK293 reporter cell line.
Stable HEK293FXR reporter cell lines were generated by stably transfecting with the pTRexDest30 (Invitrogen) derivatives pTRexDest30-hFXR, pTRexDest30-hRXR and the pGL2promoter (Promega) derivative pGL2promoter-FXRRE. The full length human FXR (accession U68233) and the full length human RXRα (accession P19793) were cloned into the pTRexDest30 applying the manufacturer protocols for the Gateway™ system (Invitrogen).
The FXR response elements were cloned (upper case and undrelined). 5′-cccaGGGTGAaTAACCTcggggctctgtccctccaatcccaGGGTGAaTAACCTcggg 3′ (SEQ ID NO. 5) was created from the human IBAB-P promoter (Grober et al 1999, JBC 274, pp. 29749-29754). A stable clone was selected and seeded at a density of […] cells per well in 48 well plates. Luciferase reporter activity was measured in duplicates from extracts of cells after incubating cells in culture medium (DMEM [Gibco-BRL]+10% FCS [PAA laboratories]) for 16 hours (5% CO2, 37° C.) containing 0.5% DMSO (control) or 0.5% DMSO with increasing concentrations of TR0800012996.

[2] = target: T2, human FXR alpha (NR1H4) (Homo sapiens, UniProt Q96RI1); experiment: FXR binding / FXR-Tif 2 coactivator interaction, LANCE TR-FRET
T2 construct: agonist activity at the NR1H4 human nuclear receptor; fused on or other part: GST at the N-terminus (pDest15) in the TR-FRET test
T2 sequence (Q96RI1 1-486): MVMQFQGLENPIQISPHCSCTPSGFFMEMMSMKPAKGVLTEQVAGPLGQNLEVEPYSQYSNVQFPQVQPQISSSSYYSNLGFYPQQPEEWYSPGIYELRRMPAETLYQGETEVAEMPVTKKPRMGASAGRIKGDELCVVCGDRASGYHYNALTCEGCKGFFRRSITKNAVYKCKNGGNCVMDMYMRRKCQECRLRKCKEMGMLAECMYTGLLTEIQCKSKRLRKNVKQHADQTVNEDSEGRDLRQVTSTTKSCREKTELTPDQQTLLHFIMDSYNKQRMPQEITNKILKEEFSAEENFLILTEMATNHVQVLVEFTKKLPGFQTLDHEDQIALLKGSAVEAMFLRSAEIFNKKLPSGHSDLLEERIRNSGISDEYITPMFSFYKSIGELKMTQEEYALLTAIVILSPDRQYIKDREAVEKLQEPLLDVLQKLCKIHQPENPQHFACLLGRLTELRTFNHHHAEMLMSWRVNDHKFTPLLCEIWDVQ
Method: In particular, the invention relates to compounds as described above wherein the compounds are capable of binding the NR1H4 receptor protein or a portion thereof according to SEQ ID NOS 1-4 shown in FIGS. 4A-4D, respectively, or a mammalian homologue thereof. The claimed compound can bind to the NR1H4 receptor protein or a portion thereof in a mixture comprising 10-200 ng of NR1H4 receptor protein or a portion thereof, preferably the ligand binding domain, 20 mM Tris/HCl at pH 7.9; 60 mM KCl; 5 mM MgCl2; 160 ng/μl BSA in a total volume of preferably about 25 μl.
For in vitro screening for compounds which influence FXR binding to coactivators, a fragment of the open reading frame of human FXR alpha (NR1H4-(Acc. No:AF384555)) encoding aminoacids 187-472 was amplified by standard RT PCR procedures (see SEQ ID NOS. 1 and 2 in FIGS. 4A and 4B, respectively). The starting material was total RNA derived from human liver. The resulting cDNA obtained after reverse transcription was subsequently cloned using the Gateway™ recombination technology (Invitrogen, USA) into the expression plasmid pDest15 (Invitrogen, USA). This construct was used to express a recombinant GST-FXR fusion protein in E. coli (BL21 strain). A pDEST 17 derivative clone harboring an additional sequence encoding amino acids 548-878 of human TIF2 (Acc. No: XM—011633 RefSeq) was constructed using Gateway™ recombination technology (Invitrogen, USA) in order to obtain a construct which was used to express recombinant His-tagged TIF2 fragment in E. coli. For E. coli expression of both constructs, plasmid DNA was transformed into chemically competent E. coli BL21 (Invitrogen, USA) and cells were grown to an OD600 of 0.4-0.7 before expression was induced by addition of 0.5 mM IPTG according instructions of the manufacturer (Invitrogen). After induction for 8 hours at 30° C., the cells were harvested by centrifugation for 10 minutes at 5000×g. Fusion proteins were affinity purified using Glutathion sepharose (Pharmacia) or Ni-NTA Agarose (QIAGEN) according to the instructions of the respective manufacturer. Recombinant proteins were dialyzed against 20 mM Tris/HCL pH 7.9; 60 mM KCl; 5 mM MgCl2; 1 mM DTT, 0.2 mM PMSF; 10% glycerol. The TIF2 fragment was subsequently biotinylated by addition of 40-120 μl of a biotinamidocaproate N-hydroxysuccinimide-ester (Sigma) solution (20 mg/ml in DMSO). […]
For screening of the compound libraries as provided for by the methods described in Examples 2, 3 and 4 below for substances which influence the FXR/Tif 2 interaction, Perkin Elmer LANCE technology was used. […] For ease of handling and reduction of background from compound fluorescence, LANCE technology makes use of generic fluorophore labels and time resoved detection. […]

SMILES | Emax ([1]; Table 6) [%] | Emax ([1]; Tables 3-5) [%] | EC50 ([1]; Tables 3-5) [µM] | agonist activity at the NR1H4 human nuclear receptor [2] | EC50 ([2]; read-out: EC50 (effective binding concentration at FXR, half-maximal effective concentration)) [µM]
O=C(O)c1ccc(CNc2nc(-c3ccccc3O)c(Cc3c(F)cccc3F)s2)cc1 [LN0000006317] | 223 | 115 | 1.45 | – | –
O=C(O)C1CCC(CNc2nc(-c3cccc(O)c3)c(Cc3c(Cl)cccc3Cl)s2)CC1 (stereo not shown) [formula (IV)] | – | – | – | active as agonist | –
O=C(O)C1CCC(CNc2nc(-c3ccccc3O)c(Cc3c(F)cccc3F)s2)CC1 (stereo not shown) [LN0000006316] | 309 | 110 | 0.2 | – | –
O=C(O)C1CCC(CNc2nc(-c3cccc(O)c3)c(Cc3c(Cl)cccc3Cl)s2)CC1 (stereo not shown) [LN0000006365] | 340 | 92 | 0.36 | – | –
COc1ccccc1Cc1sc(NCc2ccc(C(=O)O)cc2)nc1-c1ccccc1O [formula (VI)] | – | – | – | active as agonist | –
O=C(O)CCCCCNc1nc(-c2ccccc2O)c(Cc2cccc(F)c2F)s1 [LN0000006346] | – | 63 | 5.12 | – | –
O=C(O)C1CCC(CNc2nc(-c3cccc(O)c3)c(Cc3c(F)cccc3F)s2)CC1 (stereo not shown) [LN0000006348] | – | 109 | 2.39 | – | –
O=C(O)c1ccc(CNc2nc(-c3ccccc3O)c(Cc3cccc(F)c3F)s2)cc1 [LN0000006323] | – | 86 | 0.44 | – | –
COc1ccccc1Cc1sc(NCC2CCC(C(=O)O)CC2)nc1-c1ccccc1O (stereo not shown) [LN0000006328] | – | 116 | 4.5 | – | –
O=C(O)C1CCC(CNc2nc(-c3ccccc3O)c(Cc3cccc(F)c3F)s2)CC1 (stereo not shown) [LN0000006322] | – | 115 | – | – | –
O=C(O)C1CCC(CNc2nc(-c3ccccc3O)c(Cc3c(F)cccc3F)s2)CC1 (stereo not shown) [formula (III)] | – | – | – | – | 0.2
O=C(O)c1ccc(CNc2nc(-c3ccccc3O)c(Cc3cccc(F)c3F)s2)cc1 [formula (V)] | – | – | – | active as agonist | –
COc1ccccc1Cc1sc(NCCCCCC(=O)O)nc1-c1ccccc1O [LN0000006347] | – | 66 | 3.1 | – | –
COc1ccccc1Cc1sc(NCc2ccc(C(=O)O)cc2)nc1-c1ccccc1O [LN0000006329] | – | 105 | 0.73 | – | –
O=C(O)c1ccc(CNc2nc(-c3cccc(O)c3)c(Cc3c(F)cccc3F)s2)cc1 [LN0000006349] | – | 66 | 4.05 | – | –
